Source: US7195787B1, “Skincare composition against free radicals” (The Boots Company PLC, priority 1999, dated 2007)

Test: lipid peroxidation assay: protection of linoleic acid from UV light
Format: biochemical
Conditions: antioxidant at the printed concentration (1.50%, 0.10%, 0.10%, combination 1.70%)
Description: The following procedure tests the ability of antioxidants to protect lipids form the damaging effects of UV light. The antioxidants to be tested are morus alba (“Mulberry Concentrate” from Aston Chemicals), magnesium ascorbyl phosphate and panax ginseng (“Phytexcell Panax ginseng” from Croda Chemicals Ltd). The antioxidants were tested individually at a particular concentration and in combination. In the test the antioxidant or combination of antioxidants is mixed with a known skin lipid (linoleic acid) and irradiated using UV light. The quantity of peroxides in each sample is measured colourimetrically after irradiation to assess the level of damage caused by peroxidation of the linoleic acid.
A 1% lipid stock solution is prepared dissolving linoleic in an aqueous solution of octoxynol-9 (Triton X-100). Stock solutions in aqueous TBS buffer of the following antioxidants magnesium ascorbyl phosphate, morus alba and panax ginseng were prepared at 15%, 1.0% and 1.0% respectively. […]
Using a micropipette plate 7.5 μl of each sample is pipetted into 3 wells, i.e. in triplicate, and irradiated with UV light for 40 minutes. […] The reaction that occurs causes a colour change from colourless to blue which is measured colourimetrically at 675 nm. The more peroxides present the darker the blue colouration and the higher the observed absorbance.

O=C1O[C@H]([C@@H](O)CO)C([O-])=C1OP(=O)([O-])[O-].O=C1O[C@H]([C@@H](O)CO)C([O-])=C1OP(=O)([O-])[O-].[Mg+2].[Mg+2].[Mg+2] [Magnesium ascorbyl phosphate, magnesium ascorbyl phosphate]
Absorbance (675 nm, after 40 minutes UV, 0.5% linoleic acid): 0.84
percentage of peroxidation observed when compared to that seen with the irradiated controls (40 minutes UV): >100%
